From ChEMBL document CHEMBL5584322, “Nonpeptidic Irreversible Inhibitors of SARS-CoV-2 Main Protease with Potent Antiviral Activity” (J Med Chem, 2024)
pEC50, pIC50, pKi: −log10 of the molar value. The source made the active and inactive calls. The rule behind the calls is not given here.

How the values were obtained:
[1] = Stability of compound in 1 mM GSH at 100 uM incubated for 1 hr by HPLC-ESI-MS analysis; format: ADME
[2] = Stability of compound in 1 mM GSH at 10 uM incubated for 1 hr by HPLC-ESI-MS analysis; format: ADME
[3] = target: T1, Replicase polyprotein 1ab (Severe acute respiratory syndrome coronavirus 2, UniProt P0DTD1); assay: Inhibition of full-length SARS CoV-2 MPro expressed in Escherichia coli BL21(DE3) using Boc-Abu-Tle-Leu-Gln-AMC as substrate incubated for 10 mins by fluorescence based assay
[4] = Stability of compound in 1 mM GSH assessed as compound remaining at 100 uM incubated for 1 hr by HPLC-ESI-MS analysis; format: ADME; conditions: 1 mM GSH solution, read-out: Stability
[5] = target: Replicase polyprotein 1ab (Severe acute respiratory syndrome coronavirus 2) (UniProt P0DTD1); assay: Inhibition of His-tagged recombinant SARS CoV-2 MPro expressed in Escherichia coli BL21(DE3) using Boc-Abu-Tle-Leu-Gln-AMC as substrate at 1 uM incubated for shorter period by fluorescence based assay relative to control
[6] = tested on: Severe acute respiratory syndrome-related coronavirus; assay: Inhibition of SARS CoV-1 MPro using Boc-Abu-Tle-Leu-Gln-AMC as substrate incubated for 10 mins by fluorescence based assay
[7] = target: Replicase polyprotein 1ab (Severe acute respiratory syndrome coronavirus 2) (UniProt P0DTD1); assay: Inhibition of His-tagged recombinant SARS CoV-2 MPro expressed in Escherichia coli BL21(DE3) using Boc-Abu-Tle-Leu-Gln-AMC as substrate at 1 uM incubated for >6 hrs by fluorescence based assay relative to control
Calu-3 [8] = assay: Cytotoxicity against human Calu-3 cells at 10 uM; format: toxicity, cell-based; conditions: calu-3, 10 µM
SARS-CoV-2 = assay: microbe, parasite or virus in culture; conditions: Severe acute respiratory syndrome coronavirus 2, Calu-3
[9] = Stability of compound in 1 mM GSH assessed as compound remaining at 10 to 100 uM incubated for 1 hr by HPLC-ESI-MS analysis; format: ADME; conditions: 1 mM GSH solution, dose 10-100 µM, read-out: Stability
[10] = Inhibition of MERS CoV MPro using Boc-Abu-Tle-Leu-Gln-AMC as substrate incubated for 10 mins by fluorescence based assay; set-up: species or system Middle East respiratory syndrome-related coronavirus
[11] = target: Replicase polyprotein 1ab (Severe acute respiratory syndrome coronavirus 2) (UniProt P0DTD1); assay: Inhibition of full-length SARS CoV-2 MPro expressed in Escherichia coli BL21(DE3) using Boc-Abu-Tle-Leu-Gln-AMC as substrate at 1 uM incubated for 10 mins by fluorescence based assay relative to control
[12] = target: T1, Replicase polyprotein 1ab; assay: Inhibition of SARS CoV-2 MPro
[13] = (§1) Cytotoxicity against human Calu-3 cells; format: toxicity, cell-based; conditions: Calu-3 cells
Calu-3 [14] = assay: as §1; format: toxicity, cell-based; conditions: calu-3, 10 µM, dose 10 µM

CC(C)(C)[C@H](NC(=O)C(F)(F)F)C(=O)N1C[C@H]2[C@@H]([C@H]1C(=O)N[C@H](C#N)C[C@@H]1CCNC1=O)C2(C)C
Stability [1]: Stable | Stability [2]: Stable

COc1ccc(C(=O)Oc2cncc(Cl)c2)cc1Cl
pIC50 [3]: 6.61 | Stability [1]: Stable | Stability [2]: Unstable

O=C(Oc1cncc(Cl)c1)c1cccc(F)c1
pIC50 [3]: 7.33

O=C(Oc1cncc(Cl)c1)c1cccc2[nH]ccc12
remaining at 1 h, 100 µM [4]: > 70% | Stability [2]: Stable

O=C(Oc1cncc(Cl)c1)c1cc(Cl)cc(Cl)c1
pIC50 [3]: 6.88

O=C(Oc1cncc(Cl)c1)c1cccnc1
pIC50 [3]: 6.12

O=C(Oc1cncc(Cl)c1)c1ccc(Cl)cc1Cl
pIC50 [3]: 6.97 | inhibition [5]: 100% | inhibition [6]: Active

O=C(Oc1cncc(Br)c1)c1ccc(OCc2ccccc2)cc1F
pIC50 [3]: 6.63 | inhibition [7]: 100%

COc1cccc(C(=O)Oc2cncc(Br)c2)c1OC
pIC50 [3]: 7.11 | inhibition [7]: 100%

O=C(Oc1cncc(Cl)c1)c1cc2cc(Cl)ccc2[nH]1
remaining at 1 h, 100 µM [4]: > 70% | Stability [2]: Unstable

O=C(Oc1cncc(Cl)c1)c1ccc(OCc2ccccc2)cc1F
pIC50 [3]: 6.49 | inhibition [7]: 100% | inhibition [6]: inactive | Stability [1]: Stable | Stability [2]: Unstable

COc1ccc(C(=O)Oc2cncc(Br)c2)cc1
pIC50 [3]: 7.02 | inhibition [7]: 100% | Stability [1]: Stable | Activity (Calu-3 [8]): Non-Toxic | pEC50 (SARS-CoV-2): 5.73

COc1cccc(C(=O)Oc2cncc(Cl)c2)c1OC
pIC50 [3]: 7.07 | inhibition [7]: 100% | inhibition [6]: Active

O=C(Oc1cncc(Cl)c1)c1cccc(-c2ccccc2)c1
pIC50 [3]: 6.93 | Stability [1]: Stable | Stability [2]: Unstable

O=C(Oc1cncc(Cl)c1)c1ccc(Cl)c(Cl)c1
pIC50 [3]: 7.02 | inhibition [6]: Active

CNc1ccc(C(=O)Oc2cncc(Cl)c2)cc1
pIC50 [3]: 5.40 | Stability [1]: Stable | remaining at 1 h, up to 100 µM [9]: 50%

CCOc1ccc(C(=O)Oc2cncc(Cl)c2)c(F)c1
pIC50 [3]: 7.32 | inhibition [7]: 100% | inhibition [6]: inactive | Activity (Calu-3 [8]): Non-Toxic | pEC50 (SARS-CoV-2): 8.57

O=C(Oc1cncc(Br)c1)c1ccccc1
pIC50 [3]: 7.39

O=C(Oc1cncc(Br)c1)c1ccccc1F
pIC50 [3]: 7.97

COc1ccc(C(=O)Oc2cncc(Cl)c2)c(OC)c1
pIC50 [3]: 5.78 | Stability [1]: Stable

COc1cccc(C(=O)Oc2cncc(Cl)c2)c1
pIC50 [3]: 8.29 | inhibition [6]: Active | pIC50 [10]: 6.95 | Stability [2]: Unstable

O=C(Oc1cncc(Br)c1)c1ccccc1Cl
pIC50 [3]: 7.41

O=C(Oc1cncc(Cl)c1)c1ccc(Cl)cc1F
pIC50 [3]: 7.34 | inhibition [5]: 100% | inhibition [6]: inactive

O=C(Oc1cncc(Cl)c1)c1ccc(-c2cccnc2)cc1
pIC50 [3]: 6.86

O=C(Oc1cncc(Cl)c1)c1ccc(I)cc1F
pIC50 [3]: 7.83 | inhibition [6]: inactive

COc1ccc(F)c(C(=O)Oc2cncc(Cl)c2)c1F
pIC50 [3]: 7.52

CCCCCCCOc1ccc(C(=O)Oc2cncc(Cl)c2)cc1
pIC50 [3]: < 6.00 | inhibition [11]: 8% | Stability [1]: Stable | remaining at 1 h, up to 100 µM [9]: 50%

O=C(Oc1cncc(Br)c1)c1ccc(I)cc1F
pIC50 [3]: 7.47 | Stability [1]: Stable

O=C(Oc1cncc(Cl)c1)c1ccccc1F
pIC50 [3]: 7.59 | inhibition [6]: Active

N#Cc1ccc(C(=O)Oc2cncc(Cl)c2)c(F)c1
pIC50 [3]: 7.33

Nc1ccc(C(=O)Oc2cncc(Cl)c2)c(F)c1
pIC50 [3]: 6.03 | Stability [1]: Stable

O=C(Oc1cncc(Cl)c1)c1ccc(I)cc1
pIC50 [3]: 7.04 | inhibition [6]: inactive | Stability [2]: Unstable

O=C(Oc1cncc(Cl)c1)c1cc(F)cc(F)c1
pIC50 [3]: 7.42

O=C(Oc1cncc(Cl)c1)c1ccncc1
pIC50 [3]: 6.14

O=C(Oc1cncc(Cl)c1)c1ccccc1
pIC50 [3]: 7.39

O=C(Oc1cncc(Cl)c1)c1cccs1
pKi [12]: 7.09

O=C(Oc1cncc(Cl)c1)c1cccc(Cl)c1Cl
pIC50 [3]: 6.90 | inhibition [6]: Active

O=C(Oc1cncc(Cl)c1)c1ccccc1Cl
pIC50 [3]: 7.22

COc1cc(F)ccc1C(=O)Oc1cncc(Cl)c1
pIC50 [3]: 6.60

COc1ccccc1C(=O)Oc1cncc(Cl)c1
pIC50 [3]: 6.58 | inhibition [6]: inactive

O=C(Oc1cncc(Cl)c1)c1ccccc1-c1ccccc1
pIC50 [3]: < 6.00 | inhibition [11]: 6% | Stability [1]: Stable | Stability [2]: Unstable

Cc1cc(Cl)ccc1C(=O)Oc1cncc(Cl)c1
pIC50 [3]: 5.47

O=C(Oc1cncc(Br)c1)c1ccc(Cl)cc1F
pIC50 [3]: 7.45 | inhibition [5]: 100%

COc1cccc(C(=O)Oc2cncc(Br)c2)c1
pIC50 [3]: 7.70

N=C(N)Nc1ccc(C(=O)Oc2cncc(Cl)c2)cc1
pIC50 [3]: 7.18

O=C(Oc1cncc(Cl)c1)c1ccc(Cl)cc1
pIC50 [3]: 6.66

COc1ccc(C(=O)Oc2cncc(Cl)c2)cc1
pIC50 [3]: 6.79 | inhibition [7]: 100% | inhibition [6]: inactive | Stability [1]: Stable | remaining at 1 h, up to 100 µM [9]: 50% | Activity (Calu-3 [8]): Non-Toxic | pEC50 (SARS-CoV-2): 7.97

O=C(Oc1cncc(Cl)c1)c1cccc(Cl)c1
pIC50 [3]: 7.26

O=C(Oc1cncc(Br)c1)c1cccc(Cl)c1
pIC50 [3]: 7.30

O=C(Oc1cncc(Cl)c1)c1ccc(-c2ccccc2)cc1
pIC50 [3]: 6.82 | inhibition [6]: inactive | Stability [1]: Stable | remaining at 1 h, up to 100 µM [9]: 50% | CC50 [13]: 14700 nM | Activity (Calu-3 [14]): Dose-Dependent Effect | pEC50 (SARS-CoV-2): 7.23

O=C(Oc1cncc(Br)c1)c1ccc(Cl)c(Cl)c1
pIC50 [3]: 7.43

COc1c(Cl)ccc(C(=O)Oc2cncc(Cl)c2)c1F
pIC50 [3]: 7.15

O=C(Oc1cncc(Cl)c1)c1c(F)cccc1F
pIC50 [3]: 7.53 | inhibition [6]: inactive

O=C(Oc1cncc(Br)c1)c1ccc(Cl)cc1
pIC50 [3]: 7.02

O=C(Oc1cncc(Br)c1)c1ccc(Cl)cc1Cl
pIC50 [3]: 7.07 | inhibition [5]: 100%

CCOc1ccc(C(=O)Oc2cncc(Cl)c2)cc1
pIC50 [3]: 6.48 | remaining at 1 h, up to 100 µM [9]: 50%

CCOc1ccc(C(=O)Oc2cncc(Br)c2)c(F)c1
pIC50 [3]: 6.97 | inhibition [7]: 100% | Stability [2]: Unstable

O=C(Oc1cncc(Cl)c1)c1ccc(Br)cc1F
pIC50 [3]: 7.46 | inhibition [6]: inactive

O=C(Oc1cncc(Cl)c1)c1ccc(F)cc1
pIC50 [3]: 6.92
